The nature of the test: Inhibitory concentration against phosphodiesterase from bovine heart.

The structures appear in SMILES notation.

For `CC(C)Cn1c(=O)n(C)c(=O)c2nc[nH]c21` [ISOBUTYLMETHYLXANTHINE], it took 36 µM to reach half-maximal inhibition (IC50).

As a reminder, the IC50 is the concentration needed to halve the response being measured. Higher therefore signals weaker potency.

These data come from ChEMBL document CHEMBL1136647, “Visual detection of AMP and real-time monitoring of cyclic nucleotide phosphodiesterase (PDE) activity in neutral aqueous solution. Chemosensor-coupled assay of PDE and PDE inhibitors” (Bioorg Med Chem Lett, 2003).
